The values below are quoted from earlier work in patent US20200163962A1, “PHARMACEUTICAL COMPOSITION OF NILOTINIB” (SUN PHARMACEUTICAL INDUSTRIES LTD., priority 2016, published 2020).

For data set [1] the following is noted: particularly the hydrochloride.
Where [2] appears, read: ingested with or after meals, particularly high fat meals.

With `Cc1cn(-c2cc(NC(=O)c3ccc(C)c(Nc4nccc(-c5cccnc5)n4)c3)cc(C(F)(F)F)c2)cn1` [Nilotinib, 4-methyl-N-[3-(4-methyl-1H-imidazol-1-yl)-5-(trifluoromethyl)phenyl]-3-[[4-(3-pyridinyl)-2-pyrimidinyl]amino]-benzamide], the “increase of systemic exposure (AUC) compared to the fasted state” value (dose given 30 minutes after a high fat meal) was 82%. Besides, under setting [2], the “increase of Cmax with food” value was 112% and the “increase of area under the plasma profile curve with food” value was 82%. The water solubility entry in data set [1] was “poorly water soluble”.
